Laboratory results published in patent US20150224190A1, “Combination of a phosphoinositide 3-kinase inhibitor and an inhibitor of the IL-8/CXCR interaction” (priority 2012, published 2015).

Experiments:
JAK2/STAT5 [1] = test: JAK2/STAT5 phosphorylation in breast cancer cell lines (pJAK2 ELISA, pSTAT5 immunoblot); assay type: cell-based, human; settings: in vitro, after 4 hours-8 hours of treatment
Description: (§1) MDA231, lung metastatic subline MDA231 LM2 (Minn et al., 2005) and SUM159 human breast cancer cells, as well as the Balb/c tumor-derived mammary cancer lines 4T-1 and 168FARN (Aslakson and Miller, 1992), were propagated as previously described. All other cell lines were obtained from and were cultured according to the protocols of ATCC. For treatment with inhibitors, cells were synchronized without serum overnight and then supplemented with culture medium containing the inhibitor(s). For experiments with doxycycline-inducible shRNAs, 500 ng/ml of doxycycline (Sigma) was added to the medium and experiments performed 48 h later. Cell viability assays, cell cycle and cell death measurements were performed at 0.5% FCS in order to avoid masking effects of growth factors present under full-serum conditions.
Cells for Western Blotting and ELISA were lysed with RIPA buffer. Xenograft lysates were prepared by lysing kryo-homogenized tumor powder in RIPA buffer (50 mM Tris-HCl pH 8, 150 mM NaCl, 1% NP-40, 0.5% sodium deoxycholate, 0.1% SDS. RIPA was supplemented with 1× protease inhibitor cocktail (Complete Mini, Roche), 0.2 mmol/L sodium-vanadate, 20 mM sodium fluoride and 1 mmol/L phenylmethylsulfonyl fluoride. For IRS-1 immunoprecipitation, cell lysates containing 500-1000 μg of protein were incubated with 1 μg of antibody and 20-50 μl of protein A-Sepharose beads (Zymed Laboratories, Inc., South San Francisco, Calif.) overnight at 4° C. Immunoprecipitates or whole cell lysates (30-80 μg) were subjected to SDS-PAGE, transferred to PVDF membranes (Immobilon-P, Millipore) and blocked for 1 hr at room temperature with 5% milk in PBS-0.1% Tween 20. Membranes were then incubated overnight with antibodies as indicated and exposed to secondary HRP-coupled anti-mouse or -rabbit antibody at 1:5-10,000 for 1 h at room temperature. Proteins were visualized using an ECL kit (Amersham) or an enhanced chemiluminescence detection system (Pierce Biotechnology). In each of the studies presented, the results shown are typical of at least three independent experiments. The following antibodies were used: anti-JAK2 (Cell Signaling), anti-JAK1 (Cell Signaling), anti-pSTAT5 (Tyr694, Cell Signaling), anti-STAT5 (STAT5A&B, Cell Signaling), anti-STAT3 (Cell Signaling), anti-pSTAT3 (Tyr705, Cell Signaling), anti-AKT pan (Cell Signaling), anti-pAKT (Thr308 and Ser473, Cell Signaling), anti-ERK2 (Santa Cruz), anti-S6 (Cell Signaling), anti-pS6 (Ser235/236, Cell Signaling), anti-PARP (Cell Signaling), anti-MCL1 (Cell Signaling), anti-BIM (EL, L and S isoforms, Cell Signaling), anti-pIGF1R/plnsR (Invitrogen), anti-IGF1Rbeta (Cell Signaling), anti-InsRbeta (Santa Cruz), anti-IRS1 (Upstate), anti-plRS1 (Tyr612, Calbiochem).
(§2) For assessing pJAK2 levels, an ELISA assay (Tyr1007/1008, Invitrogen) was applied because of cross-reactivity of all pJAK2 antibodies tested. Interleukin-8 levels in RIPA lysates, cell culture supernatants and mouse tail vein blood plasma were measured by ELISA, as well (Biolegend). […]
(§3) The present inventors applied single doses of COMPOUND A, a dual PI3K and mTOR inhibitor, and analyzed target inhibition and potential signaling pathway crosstalks after 2, 4, 8 and 20 h hours of treatment. […] While RAD001 readily activated JAK2 starting at 4 hours of treatment, they observed a later response with BKM120 treatment starting at 8 hours after adding the compound. […]

pAKT = test: Target inhibition after single doses: pAKT levels in breast cancer lines; assay type: cell-based, human; settings: up to 20 hours after treatment, MDA 468, MDA 231 LM2 and mouse 4T-1 breast cancer lines
Description: as §1
(§4) Cells for Western Blotting and ELISA were lysed with RIPA buffer. […]
as §3

JAK2/STAT5 [2] = test: JAK2/STAT5 phosphorylation in vivo models; design: species or system mice; settings: after 8 hours of treatment
Description: as §4, §2
SCID/beige, SCID/NOD and Balb/c mice (Jackson Labs) were maintained under specific pathogen-free conditions and were used in compliance with protocols approved by the Institutional Animal Care and Use Committees of the FMI, which conform to institutional and national regulatory standards on experimental animal usage. […] Tumors were measured every 3 to 4 days with vernier calipers, and tumor volumes were calculated by the formula 0.5×(larger diameter)×(smaller diameter)^2. End point tumor sizes were analyzed for synergism using the formula AB/C<A/C×B/C, where C=tumor volume VHC, A=tumor volume compound 1, B=tumor volume compound 2, AB=tumor volume combination (Clarke, 1997). […]

In the case of `Cn1c(=O)n(-c2ccc(C(C)(C)C#N)cc2)c2c3cc(-c4cnc5ccccc5c4)ccc3ncc21` [COMPOUND A, 2-methyl-2-[4-(3-methyl-2-oxo-8-quinolin-3-yl-2,3-dihydro-imidazo[4,5-c]quinolin-1-yl)-phenyl]-propionitrile], the pJAK2 (JAK2/STAT5 [1]) is reported as “considerable upregulation”, the pSTAT5 (JAK2/STAT5 [1]) is reported as “considerable upregulation” and the pAKT levels (pAKT) is reported as “reduced”. For the same compound, the pJAK2 (JAK2/STAT5 [2]) was “considerable upregulation” and the pSTAT5 (JAK2/STAT5 [2]) was “considerable upregulation”.
